# Where two headings read alike, the source gives them in different places.
# Columns and labels:
# human TLR7 = human TLR7 (Homo sapiens (Human), UniProt Q9NYK1); experiment: TLR7 inhibition reporter assay (HEK-Blue cells, SEAP reporter, gardiquimod stimulation); type: cell-based; conditions: HEK-Blue cells overexpressing human TLR7, gardiquimod 7.5 μM
# human TLR9 = human TLR9 (Homo sapiens (Human), UniProt Q9NR96); experiment: TLR9 inhibition reporter assay (HEK-Blue cells, SEAP reporter, ODN2006 stimulation);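 note: compounds tested over 0.05 nM to 50 µM, 22 h incubation, inhibition taken as SEAP signal drop from agonist plus DMSO wells toward a known inhibitor control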
# human TLR8 = human TLR8 (Homo sapiens (Human), UniProt Q9NR97); experiment: TLR8 inhibition reporter assay (HEK-Blue cells, SEAP reporter, R848 stimulation);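 note: compounds tested from 0.05 nM to 50 µM, 22 h at 37 °C, SEAP measured with HEK-Blue Detection, inhibition relative to agonist plus DMSO versus a known inhibitor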
# [1] = read-out: TLR9 IC50, HEK-Blue cells overexpressing human TLR9, ODN2006 5 nM
# [2] = read-out: TLR8 IC50, HEK-Blue cells overexpressing human TLR8, R848 15.9 μM
# [3] = TLR9 IC50, HEK-Blue cells overexpressing human TLR9, ODN2006 5 nM
# [4] = TLR8 IC50, HEK-Blue cells overexpressing human TLR8, R848 15.9 μM
# human TLR9, sequence (Q9NR96 26-1032): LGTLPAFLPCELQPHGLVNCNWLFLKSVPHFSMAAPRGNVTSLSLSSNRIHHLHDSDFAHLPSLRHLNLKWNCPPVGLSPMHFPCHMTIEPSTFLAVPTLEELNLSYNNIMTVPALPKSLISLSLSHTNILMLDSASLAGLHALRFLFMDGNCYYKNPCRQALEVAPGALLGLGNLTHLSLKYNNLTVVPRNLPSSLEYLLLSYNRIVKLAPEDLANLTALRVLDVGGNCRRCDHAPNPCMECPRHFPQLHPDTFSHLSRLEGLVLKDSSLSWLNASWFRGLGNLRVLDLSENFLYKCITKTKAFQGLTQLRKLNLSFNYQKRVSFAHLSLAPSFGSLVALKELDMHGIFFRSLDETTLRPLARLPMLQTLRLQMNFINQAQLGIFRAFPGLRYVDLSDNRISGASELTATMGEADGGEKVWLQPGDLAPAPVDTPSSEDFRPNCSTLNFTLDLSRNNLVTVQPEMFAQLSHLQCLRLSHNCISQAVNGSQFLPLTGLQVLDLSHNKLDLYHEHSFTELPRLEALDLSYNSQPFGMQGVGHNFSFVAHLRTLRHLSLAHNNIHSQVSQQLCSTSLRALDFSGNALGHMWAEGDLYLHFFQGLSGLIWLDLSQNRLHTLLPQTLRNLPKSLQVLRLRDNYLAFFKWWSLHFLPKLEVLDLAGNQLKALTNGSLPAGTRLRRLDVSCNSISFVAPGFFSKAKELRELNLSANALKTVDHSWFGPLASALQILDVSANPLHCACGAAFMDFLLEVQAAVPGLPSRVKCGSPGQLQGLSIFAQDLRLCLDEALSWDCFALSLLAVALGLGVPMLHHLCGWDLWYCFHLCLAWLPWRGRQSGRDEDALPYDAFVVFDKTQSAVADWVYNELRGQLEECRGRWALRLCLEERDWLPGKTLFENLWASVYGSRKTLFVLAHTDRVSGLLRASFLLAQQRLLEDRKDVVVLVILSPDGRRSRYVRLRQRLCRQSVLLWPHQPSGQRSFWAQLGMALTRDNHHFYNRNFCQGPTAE
# human TLR8, sequence (Q9NR97 27-1041): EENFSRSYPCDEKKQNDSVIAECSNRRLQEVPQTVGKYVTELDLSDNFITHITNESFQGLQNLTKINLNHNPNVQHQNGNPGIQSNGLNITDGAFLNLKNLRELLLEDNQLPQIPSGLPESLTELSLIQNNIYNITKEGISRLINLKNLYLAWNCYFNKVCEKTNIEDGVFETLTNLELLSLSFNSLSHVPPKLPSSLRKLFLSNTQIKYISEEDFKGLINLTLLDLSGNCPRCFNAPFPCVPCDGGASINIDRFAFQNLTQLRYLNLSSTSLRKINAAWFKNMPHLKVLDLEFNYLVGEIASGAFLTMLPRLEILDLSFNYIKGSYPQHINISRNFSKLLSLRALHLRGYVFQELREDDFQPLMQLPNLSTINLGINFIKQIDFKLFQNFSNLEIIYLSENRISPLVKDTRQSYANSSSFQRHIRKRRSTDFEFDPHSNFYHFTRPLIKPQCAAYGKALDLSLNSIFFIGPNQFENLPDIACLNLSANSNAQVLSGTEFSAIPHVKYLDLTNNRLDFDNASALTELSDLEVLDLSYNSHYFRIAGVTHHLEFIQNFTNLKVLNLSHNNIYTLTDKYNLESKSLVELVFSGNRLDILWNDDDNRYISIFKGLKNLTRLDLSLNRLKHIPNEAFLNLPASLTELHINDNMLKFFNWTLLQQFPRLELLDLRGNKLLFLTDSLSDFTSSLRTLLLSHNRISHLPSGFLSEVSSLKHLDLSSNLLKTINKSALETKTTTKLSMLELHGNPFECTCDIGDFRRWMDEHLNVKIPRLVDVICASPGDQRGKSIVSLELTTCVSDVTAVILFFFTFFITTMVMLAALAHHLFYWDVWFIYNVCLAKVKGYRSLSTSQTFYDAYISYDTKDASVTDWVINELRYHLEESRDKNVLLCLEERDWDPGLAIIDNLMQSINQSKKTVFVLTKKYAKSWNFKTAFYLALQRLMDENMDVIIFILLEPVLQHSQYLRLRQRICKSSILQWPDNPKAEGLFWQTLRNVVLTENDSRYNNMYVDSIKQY
# human TLR7, sequence (Q9NYK1 27-1049): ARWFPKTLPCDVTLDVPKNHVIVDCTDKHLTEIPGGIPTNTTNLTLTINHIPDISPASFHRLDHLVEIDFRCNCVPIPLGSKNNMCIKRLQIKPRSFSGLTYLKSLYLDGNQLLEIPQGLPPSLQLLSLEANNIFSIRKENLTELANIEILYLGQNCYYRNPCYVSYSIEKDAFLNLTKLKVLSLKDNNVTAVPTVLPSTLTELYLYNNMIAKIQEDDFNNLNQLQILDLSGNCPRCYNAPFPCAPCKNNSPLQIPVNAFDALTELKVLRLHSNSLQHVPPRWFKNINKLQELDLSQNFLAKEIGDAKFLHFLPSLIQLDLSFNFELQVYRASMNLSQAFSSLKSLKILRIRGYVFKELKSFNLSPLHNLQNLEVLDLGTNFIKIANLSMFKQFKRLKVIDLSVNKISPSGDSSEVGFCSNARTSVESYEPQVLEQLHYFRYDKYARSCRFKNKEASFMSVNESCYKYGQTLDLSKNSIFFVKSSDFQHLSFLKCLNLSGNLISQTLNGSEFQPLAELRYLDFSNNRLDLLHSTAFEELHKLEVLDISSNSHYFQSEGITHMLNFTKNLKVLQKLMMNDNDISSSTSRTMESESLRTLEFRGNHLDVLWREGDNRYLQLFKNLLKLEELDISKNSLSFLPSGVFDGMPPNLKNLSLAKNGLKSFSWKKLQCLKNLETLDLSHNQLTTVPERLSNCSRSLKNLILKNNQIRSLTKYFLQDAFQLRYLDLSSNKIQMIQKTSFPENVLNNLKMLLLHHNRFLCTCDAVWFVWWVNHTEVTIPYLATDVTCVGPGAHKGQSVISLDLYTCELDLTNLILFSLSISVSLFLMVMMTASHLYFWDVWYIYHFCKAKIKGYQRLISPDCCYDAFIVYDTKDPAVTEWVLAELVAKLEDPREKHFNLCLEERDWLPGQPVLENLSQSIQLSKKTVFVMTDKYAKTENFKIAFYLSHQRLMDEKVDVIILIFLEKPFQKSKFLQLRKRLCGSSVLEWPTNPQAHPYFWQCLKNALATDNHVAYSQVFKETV
IC50 (human TLR7),IC50 (human TLR9; [1]),IC50 (human TLR8; [2]),IC50 (human TLR9; [3]),IC50 (human TLR8; [4]),SMILES
13.9 nM,2350 nM,104 nM,,,"Cc1cc(-c2[nH]c3ccc(C4CCN(C(=O)CN(C)C5CC5)CC4)cc3c2C(C)C)cc(C)n1 [Example 357, 2-(cyclopropyl(methyl)amino)-1-(4-(2-(2,6-dimethylpyridin-4-yl)-3-isopropyl-1H-indol-5-yl)piperidin-1-yl)ethan-1-one]"
12.9 nM,943 nM,23.7 nM,,,"Cc1cc(-c2[nH]c3ccc(C4CCN(C(=O)CN5CCCC(C)(C)C5)CC4)cc3c2C(C)C)cc(C)n1 [Example 358, 2-(3,3-dimethylpiperidin-1-yl)-1-(4-(2-(2,6-dimethylpyridin-4-yl)-3-isopropyl-1H-indol-5-yl)piperidin-1-yl)ethan-1-one]"
7.1 nM,826 nM,11.7 nM,,,"Cc1cc(-c2[nH]c3ccc(C4CCN(C(=O)CN(C)C(C)(C)C)CC4)cc3c2C(C)C)cc(C)n1 [Example 359, 2-(tert-butyl (methyl)amino)-1-(4-(2-(2,6-dimethylpyridin-4-yl)-3-isopropyl-1H-indol-5-yl)piperidin-1-yl)ethan-1-one]"
4 nM,795 nM,15.8 nM,,,"Cc1cc(-c2[nH]c3ccc(C4CCN(C(=O)CNC5(C)CC5)CC4)cc3c2C(C)C)cc(C)n1 [Example 360, 1-(4-(2-(2,6-dimethylpyridin-4-yl)-3-isopropyl-1H-indol-5-yl)piperidin-1-yl)-2-((1-methylcyclopropyl)amino)ethan-1-one]"
33.6 nM,16100 nM,55.1 nM,,,"Cc1cc(-c2[nH]c3ccc(C4CCN(C(=O)CN5CCC(F)(F)CC5)CC4)cc3c2C(C)C)cc(C)n1 [Example 362, 2-(4,4-difluoropiperidin-1-yl)-1-(4-(2-(2,6-dimethylpyridin-4-yl)-3-isopropyl-1H-indol-5-yl)piperidin-1-yl)ethan-1-one]"
8.3 nM,1800 nM,34.2 nM,,,"Cc1cc(-c2[nH]c3ccc(C4CCN(C(=O)CN5CCCC(F)C5)CC4)cc3c2C(C)C)cc(C)n1 (stereo not drawn) [Example 363, 1-(4-(2-(2,6-dimethylpyridin-4-yl)-3-isopropyl-1H-indol-5-yl)piperidin-1-yl)-2-(3-fluoropiperidin-1-yl)ethan-1-one]"
4.4 nM,584 nM,13.4 nM,,,"Cc1cc(-c2[nH]c3ccc(C4CCN(C(=O)CN5CC6(COC6)C5)CC4)cc3c2C(C)C)cc(C)n1 [Example 364, 1-(4-(2-(2,6-dimethylpyridin-4-yl)-3-isopropyl-1H-indol-5-yl)piperidin-1-yl)-2-(2-oxa-6-azaspiro[3.3]heptan-6-yl)ethan-1-one]"
6.5 nM,,,854 nM,22.9 nM,"Cc1cc(-c2[nH]c3ccc(C4CCN(C(=O)CNCC5(C)CC5)CC4)cc3c2C(C)C)cc(C)n1 [Example 365, 1-(4-(2-(2,6-dimethylpyridin-4-yl)-3-isopropyl-1H-indol-5-yl)piperidin-1-yl)-2-(((1-methylcyclopropyl)methyl)amino)ethan-1-one]"
3.2 nM,370 nM,10.9 nM,,,"Cc1cc(-c2[nH]c3ccc(C4CCN(C(=O)CN5CCCC5C)CC4)cc3c2C(C)C)cc(C)n1 (stereo not drawn) [Example 366, 1-(4-(2-(2,6-dimethylpyridin-4-yl)-3-isopropyl-1H-indol-5-yl)piperidin-1-yl)-2-(2-methylpyrrolidin-1-yl)ethan-1-one]"
6.5 nM,,,1890 nM,54.1 nM,"Cc1cc(-c2[nH]c3ccc(C4CCN(C(=O)CNCC(C)O)CC4)cc3c2C(C)C)cc(C)n1 (stereo not drawn) [Example 367, 1-(4-(2-(2,6-dimethylpyridin-4-yl)-3-isopropyl-1H-indol-5-yl)piperidin-1-yl)-2-((2-hydroxypropyl)amino)ethan-1-one]"
4.5 nM,742 nM,21 nM,,,"Cc1cc(-c2[nH]c3ccc(C4CCN(C(=O)CN5C(C)CCC5C)CC4)cc3c2C(C)C)cc(C)n1 (stereo not drawn) [Example 368, 1-(4-(2-(2,6-dimethylpyridin-4-yl)-3-isopropyl-1H-indol-5-yl)piperidin-1-yl)-2-(2,5-dimethylpyrrolidin-1-yl)ethan-1-one]"
10.3 nM,1060 nM,93.8 nM,,,"Cc1cc(-c2[nH]c3ccc(C4CCN(C(=O)CNCCC(C)O)CC4)cc3c2C(C)C)cc(C)n1 (stereo not drawn) [Example 369, 1-(4-(2-(2,6-dimethylpyridin-4-yl)-3-isopropyl-1H-indol-5-yl)piperidin-1-yl)-2-((3-hydroxybutyl)amino)ethan-1-one]"
4.7 nM,889 nM,28.8 nM,,,"COC[C@@H]1CCCN1CC(=O)N1CCC(c2ccc3[nH]c(-c4cc(C)nc(C)c4)c(C(C)C)c3c2)CC1 [Example 370, (S)-1-(4-(2-(2,6-dimethylpyridin-4-yl)-3-isopropyl-1H-indol-5-yl)piperidin-1-yl)-2-(2-(methoxymethyl)pyrrolidin-1-yl)ethan-1-one]"
3.7 nM,,,241 nM,20.4 nM,"Cc1cc(-c2[nH]c3ccc(C4CCN(C(=O)CNCC(C)(C)N5CCOCC5)CC4)cc3c2C(C)C)cc(C)n1 [Example 371, 1-(4-(2-(2,6-dimethylpyridin-4-yl)-3-isopropyl-1H-indol-5-yl)piperidin-1-yl)-2-((2-methyl-2-morpholinopropyl)amino)ethan-1-one]"
1.9 nM,,,602 nM,14.1 nM,"COCCN1CCN(CC(=O)N2CCC(c3ccc4[nH]c(-c5cc(C)nc(C)c5)c(C(C)C)c4c3)CC2)CC1 [Example 372, 1-(4-(2-(2,6-dimethylpyridin-4-yl)-3-isopropyl-1H-indol-5-yl)piperidin-1-yl)-2-(4-(2-methoxyethyl)piperazin-1-yl)ethan-1-one]"
2.5 nM,429 nM,17.5 nM,,,"Cc1cc(-c2[nH]c3ccc(C4CCN(C(=O)CNCC5CCCO5)CC4)cc3c2C(C)C)cc(C)n1 (stereo not drawn) [Example 373, 1-(4-(2-(2,6-dimethylpyridin-4-yl)-3-isopropyl-1H-indol-5-yl)piperidin-1-yl)-2-(((tetrahydrofuran-2-yl)methyl)amino)ethan-1-one]"
5.6 nM,,,548 nM,21.4 nM,"Cc1cc(-c2[nH]c3ccc(C4CCN(C(=O)CNC5(C)CCOCC5)CC4)cc3c2C(C)C)cc(C)n1 [Example 374, 1-(4-(2-(2,6-dimethylpyridin-4-yl)-3-isopropyl-1H-indol-5-yl)piperidin-1-yl)-2-((4-methyltetrahydro-2H-pyran-4-yl)amino)ethan-1-one]"
13.1 nM,1780 nM,80.6 nM,,,"Cc1cc(-c2[nH]c3ccc(C4CCN(C(=O)CNCC(C)(C)O)CC4)cc3c2C(C)C)cc(C)n1 [Example 375, 1-(4-(2-(2,6-dimethylpyridin-4-yl)-3-isopropyl-1H-indol-5-yl)piperidin-1-yl)-2-((2-hydroxy-2-methylpropyl)amino)ethan-1-one]"
4.4 nM,514 nM,17.5 nM,,,"Cc1cc(-c2[nH]c3ccc(C4CCN(C(=O)CN5CCCCC5C)CC4)cc3c2C(C)C)cc(C)n1 (stereo not drawn) [Example 377, 1-(4-(2-(2,6-dimethylpyridin-4-yl)-3-isopropyl-1H-indol-5-yl)piperidin-1-yl)-2-(2-methylpiperidin-1-yl)ethan-1-one]"
1.7 nM,389 nM,11.8 nM,,,"Cc1cc(-c2[nH]c3ccc(C4CCN(C(=O)CN5CCCC(C)C5)CC4)cc3c2C(C)C)cc(C)n1 (stereo not drawn) [Example 378, 1-(4-(2-(2,6-dimethylpyridin-4-yl)-3-isopropyl-1H-indol-5-yl)piperidin-1-yl)-2-(3-methylpiperidin-1-yl)ethan-1-one]"
7.7 nM,3920 nM,55.2 nM,,,"Cc1cc(-c2[nH]c3ccc(C4CCN(C(=O)CN5CCNC(=O)C5)CC4)cc3c2C(C)C)cc(C)n1 [Example 379, 4-(2-(4-(2-(2,6-dimethylpyridin-4-yl)-3-isopropyl-1H-indol-5-yl)piperidin-1-yl)-2-oxoethyl) piperazin-2-one]"
2 nM,354 nM,10.5 nM,,,"Cc1cc(-c2[nH]c3ccc(C4CCN(C(=O)CN5CC[C@H](O)C5)CC4)cc3c2C(C)C)cc(C)n1 [Example 380, (S)-1-(4-(2-(2,6-dimethylpyridin-4-yl)-3-isopropyl-1H-indol-5-yl)piperidin-1-yl)-2-(3-hydroxypyrrolidin-1-yl)ethan-1-one]"
2.2 nM,348 nM,9.8 nM,,,"Cc1cc(-c2[nH]c3ccc(C4CCN(C(=O)CN5CCC[C@H]5CO)CC4)cc3c2C(C)C)cc(C)n1 [Example 381, (S)-1-(4-(2-(2,6-dimethylpyridin-4-yl)-3-isopropyl-1H-indol-5-yl)piperidin-1-yl)-2-(2-(hydroxymethyl)pyrrolidin-1-yl)ethan-1-one]"
7.6 nM,769 nM,44.1 nM,,,"Cc1cc(-c2[nH]c3ccc(C4CCN(C(=O)CNC(CO)CC(C)C)CC4)cc3c2C(C)C)cc(C)n1 (stereo not drawn) [Example 382, 1-(4-(2-(2,6-dimethylpyridin-4-yl)-3-isopropyl-1H-indol-5-yl)piperidin-1-yl)-2-((1-hydroxy-4-methylpentan-2-yl)amino)ethan-1-one]"
1.7 nM,572 nM,11.1 nM,,,"Cc1cc(-c2[nH]c3ccc(C4CCN(C(=O)CN5CCCC(O)C5)CC4)cc3c2C(C)C)cc(C)n1 (stereo not drawn) [Example 383, 1-(4-(2-(2,6-dimethylpyridin-4-yl)-3-isopropyl-1H-indol-5-yl)piperidin-1-yl)-2-(3-hydroxypiperidin-1-yl)ethan-1-one]"
